The text below walks through data of publication PMC6662683, “Identification of the Catechin Uptake Transporter Responsible for Intestinal Absorption of Epigallocatechin Gallate in Mice” (Scientific Reports, 2019).

For data set [1], the target named is T1, diastrophic dysplasia sulfate transporter (DTDST) (Mus musculus, UniProt Q62273).
T1 construct: gene Slc26a2; full open reading frame from mouse ileal epithelial cDNA, C-terminal FLAG tag, stably expressed in CHO-K1 cells (pcDNA3.1(+))
T1 sequence (Q62273 1-739): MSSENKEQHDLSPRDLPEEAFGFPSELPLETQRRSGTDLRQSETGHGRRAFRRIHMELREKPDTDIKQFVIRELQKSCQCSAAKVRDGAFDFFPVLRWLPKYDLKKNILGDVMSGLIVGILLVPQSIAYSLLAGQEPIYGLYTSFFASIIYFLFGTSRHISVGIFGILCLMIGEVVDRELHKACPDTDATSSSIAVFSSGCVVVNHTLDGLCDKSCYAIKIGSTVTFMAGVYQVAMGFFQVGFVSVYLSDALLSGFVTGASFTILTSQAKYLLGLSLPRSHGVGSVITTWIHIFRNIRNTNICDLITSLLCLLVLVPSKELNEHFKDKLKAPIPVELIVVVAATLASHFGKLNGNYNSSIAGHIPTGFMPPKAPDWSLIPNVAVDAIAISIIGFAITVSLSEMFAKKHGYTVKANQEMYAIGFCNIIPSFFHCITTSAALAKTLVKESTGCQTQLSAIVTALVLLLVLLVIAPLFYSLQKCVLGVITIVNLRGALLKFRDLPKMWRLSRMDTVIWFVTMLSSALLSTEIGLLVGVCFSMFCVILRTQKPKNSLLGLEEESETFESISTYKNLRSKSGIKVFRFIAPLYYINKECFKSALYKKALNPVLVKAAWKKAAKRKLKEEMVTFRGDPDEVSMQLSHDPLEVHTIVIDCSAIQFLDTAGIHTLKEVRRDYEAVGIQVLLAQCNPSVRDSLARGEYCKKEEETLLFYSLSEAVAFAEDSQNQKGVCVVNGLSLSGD
Nature of the data set: inhibition of EGCg uptake into stably expressing CHO-K1 cells, LC-MS/MS. In kind it is cell-based. The note with it: 100 μM DIDS 1 h before EGCg; 500 μM EGCg, 30 min (Figure 4 legend; methods give 100 μM EGCg); pH 6.0, 37 °C.

Substrate in data set [2]: O=C(O[C@@H]1Cc2c(O)cc(O)cc2O[C@@H]1c1cc(O)c(O)c(O)c1)c1cc(O)c(O)c(O)c1
Description: EGCg uptake into stably expressing CHO-K1 cells, mock subtracted, LC-MS/MS. The data set is classed as cell-based, Mus musculus. The note with it: Hanks' balanced salt solution pH 6.0, 37 °C, 30 min, 1-1000 μM EGCg.

On to `O=S(=O)(O)c1cc(N=C=S)ccc1/C=C/c1ccc(N=C=S)cc1S(=O)(=O)O` [4,4′-diisothiocyano-2,2′-stilbenedisulfonic acid], for which the “inhibition of EGCg uptake into stably expressing CHO-K1 cells, LC-MS/MS” value in data set [1] is listed as “compared with mock cells was nullified in the presence of the DTDST inhibitor DIDS”.

B1: diastrophic dysplasia sulfate transporter (DTDST) (Mus musculus) (protein)
chain: T1 sequence (Q62273 1-739)
notes: full open reading frame from mouse ileal epithelial cDNA, C-terminal FLAG tag, stably expressed in CHO-K1 cells (pcDNA3.1(+))
What is called Km is the substrate concentration at which the rate is half of its maximum. B1: the Km in data set [2] was found to be 576 ± 244 µM.
